Read-outs that look alike come from different tables or passages of the source. A value given as a limit tells only on which side of the number the result lay.

Details of series [1]: species or system Menschen. The conditions noted are these: in vivo. How it is done: (§1) Abbildung 1 gibt hierbei die Plasma-Konzentration von AG-EE 623 ZW und AG-EE 624 ZW nach 1,0 mg i.v. AG-EE 388 ZW und Abbildung 2 die Plasma-Konzentration von AG-EE 623 ZW und AG-EE 624 ZW nach 1,0 mg p.o. (Lösung) AG-EE 388 ZW jeweils an 12 freiwilligen männlichen Probanden wieder. […] Dies wirkt sich z.B. bei Applikation einer Tablette mit 2 mg AG-EE 388 ZW bzw. einer Tablette mit 1 mg AG-EE 623 ZW an 12 bzw. 6 Probanden so aus, daß die Maximal-Konzentrationen 84 ± 25 bzw. 28 ± 18 ng/ml sowie die Konzentrationen nach 4 Stunden 19 ± 8 bzw. 0,7 ± 1,0 ng/ml, nach 5 Stunden 13 ± 6 bzw. 0,3 ± 0,7 ng/ml und nach 6 Stunden 10 ± 6 bzw. 0,3 ± 0,7 ng/ml betragen.

A further series concerns weiblichen Ratten. The series is described as follows: Blood-glucose-lowering effect in female rats. The following applies: for blutzuckersenkende Wirkung: female rats. The format is in vivo, Ratte. From the text:
Die beiden Enantiomeren dieser Verbindung, nämlich (S)(+)-2-Äthoxy-4-[N-[1-(2-piperidino-phenyl)-3-methyl-1-butyl] aminocarbonylmethyl]-benzoesäure (Code-Nr.: AG-EE 623 ZW) und (R)(-)-2-Äthoxy-4-[N-[1-(2-piperidino-phenyl)-3-methyl-1-butyl]aminocarbonylmethyl]-benzoesäure (Code-Nr.: AG-EE 624 ZW), wurden auf ihre blutzuckersenkende Wirkung an weiblichen Ratten geprüft.

Series [2] in a line: Plasma concentrations in volunteers after one tablet of racemate or (S)-enantiomer. In kind it is in vivo, Menschen. The conditions noted are these: human, po; for concentration at 4 h: read-out: Konzentrationen nach 4 Stunden; for concentration at 5 h: read-out: Konzentrationen nach 5 Stunden; for concentration at 6 h: read-out: Konzentrationen nach 6 Stunden; for Cmax: read-out: Maximal-Konzentrationen. On the procedure: as §1

The format of series [3] is in vivo, Menschen. The text has this:
Auf Grund dieser Ergebnisse an der Ratte erscheint für den Menschen die ausschließliche Verwendung von AG-EE 623 ZW geboten, wodurch die Dosis im Vergleich zur AG-EE 388 ZW-Dosis um 50 % reduziert werden kann. […] Darüber hinaus wurde jedoch bei den Human-Studien gefunden, daß AG-EE 623 ZW überraschende pharmakokinetische Eigenschaften aufweist, die auf Grund der AG-EE 388 ZW-Daten nicht vorhersehbar waren. AG-EE 623 ZW zeigt somit überraschende therapeutische Vorteile gegenüber dem Racemat AG-EE 388 ZW.

The subject of another series is Ratten. The series can be described thus: Acute oral toxicity in rats, single dose, 14 days observation. In kind it is in vivo.
The mark [4] stands for this setting: tablet with 2 mg AG-EE 388 ZW, 12 volunteers.
Setting [5] is: tablet with 1 mg AG-EE 623 ZW, 6 volunteers.

Turning to `CCOc1cc(CC(=O)N[C@H](CC(C)C)c2ccccc2N2CCCCC2)ccc1C(=O)O` [AG-EE 624 ZW, (R)(-)-2-Äthoxy-4-[N-[1-(2-piperidino-phenyl)-3-methyl-1-butyl]aminocarbonylmethyl]-benzoesäure], in series [1], the “Plasma-Konzentrationen nach Racemat-Gabe” value is listed as “in unerwartet höheren Maximal- und Dauer-Spiegeln anwesend”. In the series on weiblichen Ratten, the “blutzuckersenkende Wirkung” value is recorded as “unwirksame Enantiomere”.
Consider `CCOc1cc(CC(=O)NC(CC(C)C)c2ccccc2N2CCCCC2)ccc1C(=O)O` (racemic) [AG-EE 388 ZW, 2-Äthoxy-4-[N-[1-(2-piperidino-phenyl)-3-methyl-1-butyl]aminocarbonylmethyl]-benzoesäure, reference compound], for which, in series [2] (setting [4]), the concentration at 4 h worked out at 19 ± 8 ng/mL, the concentration at 5 h stood at 13 ± 6 ng/mL, the concentration at 6 h is 10 ± 6 ng/mL and the Cmax came out at 84 ± 25 ng/mL.
Take `CCOc1cc(CC(=O)N[C@@H](CC(C)C)c2ccccc2N2CCCCC2)ccc1C(=O)O` [AG-EE 623 ZW, (S)(+)-2-Äthoxy-4-[N-[1-(2-piperidino-phenyl)-3-methyl-1-butyl]aminocarbonylmethyl]-benzoesäure]: the “Elimination (Plasma-Konzentration)” value in series [1] was “wesentlich schneller als das unwirksame Enantiomere, AG-EE 624 ZW, eliminiert”. In series [2] (setting [5]), the concentration at 4 h stood at 0.7 ng/mL, the concentration at 5 h was found to be 0.3 ng/mL, the concentration at 6 h was 0.3 ng/mL and the Cmax turned out to be 28 ± 18 ng/mL. Also, in series [3] (human), the “Eintritt der blutzuckersenkenden Wirkung” value is “rascher ein als nach AG-EE 388 ZW-Gabe” and the Wirkungsdauer entry is recorded as “relativ lange Wirkungsdauer”. Also, in series [3] (in vivo), the “Abfall der Spiegel” value is given as “fallen rascher gegen null als die AG-EE 388 ZW-Spiegel” and the “Plasmaspiegel in Relation zur erzielten Blutzuckersenkung” value was “wesentlich niedrigere Plasmaspiegel”. The “blutzuckersenkende Wirkung” value in the series with weiblichen Ratten is recorded as “wirksame Enantiomere”. Besides, the “Dauer der Wirkung (Wirkung hält an)” value in the series with weiblichen Ratten (rat) is over 6 Stunden. Moreover, the Toxizität result with Ratten (rats, 1000 mg/kg p.o.) is reported as “praktisch untoxisch”. Moreover, the “verstorbene Tiere” value with Ratten (single 1000 mg/kg p.o., suspension in 1% methylcellulose, 5 male and 5 female rats, 14 days) was “kein Tier”.

For the origin of these results see patent EP0589874B1, “USE OF (S)(+)-2-ETHOXY-4-[N-[1-(2-PIPERIDINOPHENYL)-3-METHYL-1-BUTYL]AMINOCARBONYLMETHYL]BENZOIC ACID FOR THE PREPARATION OF A LONGLASTING ANTIDIABETIC MEDICAMENT” (Boehringer Ingelheim Pharma KG, priority 1991, dated 1993).
